From patent US10577363B2, “Substituted piperidine compounds” (EPIZYME, INC., priority 2014, dated 2020)

How the values were obtained:
SMYD3 [1] = target: T1, SMYD3 (Homo sapiens (Human), UniProt Q9H7B4); test: SMYD3 biochemical assay (SPA, 3H-SAM methylation of MEKK2 protein substrate); details: average of n = 1 to n = 50; read-out: SMYD3 Biochem IC50
Procedure, shortened: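 Native full-length human SMYD3 (E. coli-expressed, tags removed) was preincubated with compound for 30 min at room temperature in 25 mM Tris-Cl pH 8.0, 1 mM TCEP, 0.005% BSG, 0.005% Tween 20. Reaction was started with 3H-SAM plus GST-MEKK2, quenched with 100 uM unlabeled SAM, and read by SPA scintillation counting.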

SMYD3 [2] = target: T1, SMYD3; test: SMYD3 cell assay (Trimethyl-MEKK2 In-Cell Western in 293T/17 cells); assay type: cell-based; details: average of n = 1 to n = 50; read-out: SMYD3 Cell IC50
Procedure, shortened: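 In-Cell Western ratio of trimethyl-Lys260 MEKK2 to anti-flag signal; percent inhibition from DMSO and maximum-inhibition controls, IC50 by non-linear regression, triplicates.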

T1 sequence (Q9H7B4 whole entry): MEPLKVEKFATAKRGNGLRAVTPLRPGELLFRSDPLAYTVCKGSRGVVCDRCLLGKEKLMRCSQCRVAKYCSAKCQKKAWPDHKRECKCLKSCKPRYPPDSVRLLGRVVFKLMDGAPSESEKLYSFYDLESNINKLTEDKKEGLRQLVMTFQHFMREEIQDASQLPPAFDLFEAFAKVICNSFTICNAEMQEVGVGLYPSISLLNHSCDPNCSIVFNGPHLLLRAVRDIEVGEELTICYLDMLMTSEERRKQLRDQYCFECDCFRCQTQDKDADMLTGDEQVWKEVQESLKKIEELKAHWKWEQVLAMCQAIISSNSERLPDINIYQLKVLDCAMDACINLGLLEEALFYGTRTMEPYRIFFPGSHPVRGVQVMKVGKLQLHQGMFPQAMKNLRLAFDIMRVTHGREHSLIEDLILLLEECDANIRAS

How did the IC50 (SMYD3 [1]) turn out when `C[C@H]1C[C@@H](NC(=O)c2cc(C3CC3)on2)CCN1S(=O)(=O)N1CCNCC1Cc1ccccc1` (stereo partly drawn) [compound 737, N-((2S,4S)-1-((2-benzylpiperazin-1-yl)sulfonyl)-2-methylpiperidin-4-yl)-5-cyclopropylisoxazole-3-carboxamide] was run?
Its IC50 is 469 nM.

What about the IC50 (SMYD3 [2]) of the same compound?
Its IC50 is 6940 nM.

Which IC50 (SMYD3 [1]) does the source give for `C[C@H]1CN(S(=O)(=O)CC2CCN(CCN3CCOCC3)CC2)CC[C@H]1NC(=O)c1cc(C2CC2)on1` [compound 738, 5-cyclopropyl-N-((3S,4R)-3-methyl-1-(((1-(2-morpholinoethyl)piperidin-4-yl)methyl)sulfonyl)piperidin-4-yl)isoxazole-3-carboxamide] here?
The IC50 was 476 nM.

And the IC50 (SMYD3 [2])?
The IC50 was 2820 nM.

What does the source list for `O=C(N[C@H]1C[C@H]2CC[C@@H](C1)N2S(=O)(=O)CCc1ccncc1)c1cc(C2CC2)on1` [compound 739, 5-cyclopropyl-N-((1R,3r,5S)-8-((2-(pyridin-4-yl)ethyl)sulfonyl)-8-azabicyclo[3.2.1]octan-3-yl)isoxazole-3-carboxamide]?
IC50 (SMYD3 [1]): 491 nM; IC50 (SMYD3 [2]): 2400 nM

For `CN(CCN1CCOCC1)CCS(=O)(=O)N1[C@@H]2CC[C@H]1C[C@@H](NC(=O)c1cc(C3CC3)on1)C2` [compound 742, 5-cyclopropyl-N-((1R,3r,5S)-8-((2-(methyl(2-morpholinoethyl)amino)ethyl)sulfonyl)-8-azabicyclo[3.2.1]octan-3-yl)isoxazole-3-carboxamide], which IC50 (SMYD3 [1]) is on record?
The IC50 was 513 nM.

And the IC50 (SMYD3 [2])?
Its IC50 is 899 nM.

For `O=C(N[C@H]1C[C@H]2CC[C@@H](C1)N2S(=O)(=O)CCNCCN1CCOCC1)c1cc(C2CC2)on1` [compound 743, 5-cyclopropyl-N-((1R,3r,5S)-8-((2-((2-morpholinoethyl)amino)ethyl)sulfonyl)-8-azabicyclo[3.2.1]octan-3-yl)isoxazole-3-carboxamide], which IC50 (SMYD3 [1]) is on record?
Its IC50 is 514 nM.

What about the IC50 (SMYD3 [2]) of the same compound?
Its IC50 is 1820 nM.

With `O=C(N[C@@H]1CCN(S(=O)(=O)CC2CCNCC2)[C@H](Cc2ccccc2)C1)c1cc(C2CC2)on1` [compound 744, N-((2R,4R)-2-benzyl-1-((piperidin-4-ylmethyl)sulfonyl)piperidin-4-yl)-5-cyclopropylisoxazole-3-carboxamide] as the compound, how does the IC50 (SMYD3 [1]) read?
Its IC50 is 518 nM.

What about the IC50 (SMYD3 [2]) of the same compound?
The IC50 was 2350 nM.

What does the source list for `O=C(N[C@H]1CCN(S(=O)(=O)CC2CCCN2)[C@@H](Cc2ccccc2)C1)c1cc(C2CC2)on1` (stereo partly drawn) [compound 745, N-((2S,4S)-2-benzyl-1-((pyrrolidin-2-ylmethyl)sulfonyl)piperidin-4-yl)-5-cyclopropylisoxazole-3-carboxamide]?
IC50 (SMYD3 [1]): 533 nM; IC50 (SMYD3 [2]): 2640 nM

Which IC50 (SMYD3 [1]) does the source give for `C[C@@H]1CN(S(=O)(=O)CCN2CCCC2)[C@H](C)C[C@@H]1NC(=O)c1cc(C2CC2)on1` [compound 746, 5-cyclopropyl-N-((2R,4S,5R)-2,5-dimethyl-1-((2-(pyrrolidin-1-yl)ethyl)sulfonyl)piperidin-4-yl)isoxazole-3-carboxamide] here?
Its IC50 is 541 nM.

What about the IC50 (SMYD3 [2]) of the same compound?
Its IC50 is 1660 nM.

Which results are given for `C[C@@H]1C[C@H](NC(=O)c2cc(C3CC3)on2)CCN1C(=O)c1ccc2c(c1)ncn2C` [compound 747, 5-cyclopropyl-N-((2R,4R)-2-methyl-1-(1-methyl-1H-benzo[d]imidazole-5-carbonyl)piperidin-4-yl)isoxazole-3-carboxamide]?
IC50 (SMYD3 [1]): 583 nM; IC50 (SMYD3 [2]): 2410 nM

What does the source list for `CN(CCc1ccccc1)CCS(=O)(=O)N1[C@@H]2CC[C@H]1C[C@@H](NC(=O)c1cc(C3CC3)on1)C2` [compound 748, 5-cyclopropyl-N-((1R,3r,5S)-8-((2-(methyl(phenethyl)amino)ethyl)sulfonyl)-8-azabicyclo[3.2.1]octan-3-yl)isoxazole-3-carboxamide]?
IC50 (SMYD3 [1]): 584 nM; IC50 (SMYD3 [2]): 3180 nM

How did the IC50 (SMYD3 [1]) turn out when `O=C(N[C@H]1C[C@H]2CC[C@@H](C1)N2S(=O)(=O)N1CCNC(Cc2ccccc2)C1)c1cc(C2CC2)on1` (stereo partly drawn) [compound 749, N-((1R,3r,5S)-8-((3-benzylpiperazin-1-yl)sulfonyl)-8-azabicyclo[3.2.1]octan-3-yl)-5-cyclopropylisoxazole-3-carboxamide] was run?
Its IC50 is 590 nM.

And the IC50 (SMYD3 [2])?
Its IC50 is 3560 nM.

With `COCCCN1CCC(CS(=O)(=O)N2CC[C@H](NC(=O)c3cc(C4CC4)on3)C[C@@H]2Cc2ccccc2)CC1` [compound 750, N-((2S,4S)-2-benzyl-1-(((1-(3-methoxypropyl)piperidin-4-yl)methyl)sulfonyl)piperidin-4-yl)-5-cyclopropylisoxazole-3-carboxamide] as the compound, how does the IC50 (SMYD3 [1]) read?
Its IC50 is 625 nM.

And the IC50 (SMYD3 [2])?
The IC50 was 3470 nM.

With `C[C@H]1C[C@@H](NC(=O)c2cc(C3CC3)on2)CCN1S(=O)(=O)N1CCN[C@H](c2ccccc2)C1` [compound 751, 5-cyclopropyl-N-((2S,4S)-2-methyl-1-(((R)-3-phenylpiperazin-1-yl)sulfonyl)piperidin-4-yl)isoxazole-3-carboxamide] as the compound, how does the IC50 (SMYD3 [1]) read?
The IC50 was 633 nM.

And the IC50 (SMYD3 [2])?
Its IC50 is 2890 nM.

`O=C(N[C@@H]1CCN(S(=O)(=O)C2CCNC2)[C@H](Cc2ccccc2)C1)c1cc(C2CC2)on1` (stereo partly drawn) [compound 752, N-((2R,4R)-2-benzyl-1-(pyrrolidin-3-ylsulfonyl)piperidin-4-yl)-5-cyclopropylisoxazole-3-carboxamide] was tested. Which IC50 (SMYD3 [1]) did it give?
The IC50 was 667 nM.

What about the IC50 (SMYD3 [2]) of the same compound?
Its IC50 is 2490 nM.

For `O=C(N[C@@H]1C[C@H]2CCC[C@@H](C1)N2S(=O)(=O)c1cncc(F)c1)c1cc(C2CC2)on1` [compound 753, 5-cyclopropyl-N-((1R,3s,5S)-9-((5-fluoropyridin-3-yl)sulfonyl)-9-azabicyclo[3.3.1]nonan-3-yl)isoxazole-3-carboxamide], which IC50 (SMYD3 [1]) is on record?
Its IC50 is 672 nM.

And the IC50 (SMYD3 [2])?
Its IC50 is 2040 nM.

What does the source list for `C[C@H]1C[C@@H](NC(=O)c2cc(C3CC3)on2)CCN1S(=O)(=O)NCc1c(F)cccc1Cl` [compound 754, N-((2S,4S)-1-(N-(2-chloro-6-fluorobenzyl)sulfamoyl)-2-methylpiperidin-4-yl)-5-cyclopropylisoxazole-3-carboxamide]?
IC50 (SMYD3 [1]): 676 nM; IC50 (SMYD3 [2]): 3710 nM

`C[C@@H]1CN(S(=O)(=O)N2CC[C@H](NC(=O)c3cc(C4CC4)on3)C[C@@H]2C)C[C@H](C)N1C` [compound 755, 5-cyclopropyl-N-((2S,4S)-2-methyl-1-(((3S,5R)-3,4,5-trimethylpiperazin-1-yl)sulfonyl)piperidin-4-yl)isoxazole-3-carboxamide] was tested. Which IC50 (SMYD3 [1]) did it give?
Its IC50 is 677 nM.

What about the IC50 (SMYD3 [2]) of the same compound?
The IC50 was 2380 nM.

Which IC50 (SMYD3 [1]) does the source give for `C[C@H]1C[C@@H](NC(=O)c2cc(C3CC3)on2)CCN1S(=O)(=O)c1ccnc(N)c1` [compound 756, N-((2S,4S)-1-((2-aminopyridin-4-yl)sulfonyl)-2-methylpiperidin-4-yl)-5-cyclopropylisoxazole-3-carboxamide] here?
Its IC50 is 684 nM.

And the IC50 (SMYD3 [2])?
Its IC50 is 1770 nM.

For `CN(C1CCNCC1)S(=O)(=O)N1CC[C@@H](NC(=O)c2cc(C3CC3)on2)C[C@H]1Cc1ccccc1` [compound 757, N-((2R,4R)-2-benzyl-1-(N-methyl-N-(piperidin-4-yl)sulfamoyl)piperidin-4-yl)-5-cyclopropylisoxazole-3-carboxamide], which IC50 (SMYD3 [1]) is on record?
The IC50 was 726 nM.

What about the IC50 (SMYD3 [2]) of the same compound?
Its IC50 is 7610 nM.

Which results are given for `O=C(N[C@H]1C[C@H]2CC[C@@H](C1)N2S(=O)(=O)N1CC2COCC(C1)N2)c1cc(C2CC2)on1` [compound 758, N-((1R,3r,5S)-8-((3-oxa-7,9-diazabicyclo[3.3.1]nonan-7-yl)sulfonyl)-8-azabicyclo[3.2.1]octan-3-yl)-5-cyclopropylisoxazole-3-carboxamide]?
IC50 (SMYD3 [1]): 731 nM; IC50 (SMYD3 [2]): 1650 nM
